From patent US7465719B2, “Carbamic acid compounds comprising an ester or ketone linkage as HDAC inhibitors” (Topotarget UK Limited, priority 2003, dated 2008) come the findings set out here.

The subject of one series is HDAC (HeLa cell extract). The experiment in a line: Primary assay: deacetylase activity, HeLa cell extract as source of HDAC. The series is classed as biochemical, human. Conditions: read-out: HDAC Inhibition (IC50 unless otherwise specified) HeLa. As for the experimental part:
Decreased activity indicates increased inhibition by the test compound.
Alternatively, the activity of the compounds as HDAC inhibitors was determined using a commercially available fluorescent assay kit: (Fluor de Lys™, BioMol Research Labs, Inc., Plymouth Meeting, USA).
Extensive comparative studies have shown that Primary Assay (1) and Primary Assay (2), discussed above, yield equivalent results. Primary Assay results reported herein are (a) exclusively from (1); (b) exclusively from (2); or (c) from both (1) and (2).
The HeLa cell extract was made from HeLa cells (ATCC Ref. No. CCL-2) by freeze-thawing three times in 60 mM Tris Cl pH 8.0, 450 mM NaCl, 30% glycerol. Two cell volumes of extraction buffer were used, and particulate material was centrifuged out (20800 g, 4° C., 10 minutes). The supernatant extract having deacetylase activity was aliquotted and frozen for storage.

For the next series, the system named is HeLa cells. The experiment in a line: Secondary assay: cell proliferation WST-1, HeLa. The series is classed as cell-based. Conditions: Homo sapiens, read-out: Cell Proliferation Inhibition WST-1 (IC50 unless otherwise specified) HeLa. The source says:
Compounds with HDAC inhibition activity, as determined using the primary assay, were subsequently evaluated using secondary cell-based assays. The following cell lines were used: • HeLa—Human cervical adenocarcinoma cell line (ATCC ref. No. CCL-2). • K11—HPV E7 transformed human keratinocyte line provided by Pidder Jansen-Duerr, Institut für Biomedizinische Alternsforschung, Innsbruck, Austria. • NHEK-Ad—Primary human adult keratinocyte line (Cambrex Corp., East Rutherford, N.J., USA). • JURKAT—Human T-cell line (ATCC no. TIB-152). Assay Method
Cells were cultured, exposed to candidate compounds, and incubated for a time, and the number of viable cells was then assessed using the Cell Proliferation Reagent WST-1 from Boehringer Mannheim (Cat. No. […]), described below.
(§1) Cells were plated in 96-well plates at 3-10×10^3 cells/well in 100 μL of culture medium. The following day, different concentrations of candidate compounds were added and the cells incubated at 37° C. for 48 hours. Subsequently, 10 μL/well of WST-1 reagent was added and the cells reincubated for 1 hour. After the incubation time, absorbance was measured.
(§2) WST-1 is a tetrazolium salt which is cleaved to formazan dye by cellular enzymes. An expansion in the number of viable cells results in an increase in the overall activity of mitochondrial dehydrogenases in the sample. This augmentation in the enzyme activity leads to an increase in the amount of formazan dye formed, which directly correlates to the number of metabolically active cells in the culture. The formazan dye produced is quantified by a scanning multiwell spectrophotometer by measuring the absorbance of the dye solution at 450 nm wavelength (reference wavelength 690 nm).
(§3) IC50 values were calculated using the software package Prism 3.0 (GraphPad Software Inc., San Diego, Calif.), setting top value at 100 and bottom value at 0.

The subject of series [1] is JURKAT (human T-cell line). The experiment in a line: Secondary assay: cell proliferation WST-1, Jurkat. Conditions: Jurkat cells, 48 hours, read-out: Cell Proliferation Inhibition WST-1 (IC50 unless otherwise specified) Jurkat. The series is classed as cell-based. The procedure:
(§4) Compounds with HDAC inhibition activity, as determined using the primary assay, were subsequently evaluated using secondary cell-based assays. […] Assay Method
as §1, §2
Percent activity (% activity) in reducing the number of viable cells was calculated for each test compound as: % activity={(S^C−B)/(S^o−B)}×100 wherein S^C denotes signal measured in the presence of the compound being tested, S^o denotes signal measured in the absence of the compound being tested, and B denotes the background signal measured in blank wells containing medium only. […] IC50 values were calculated using the software package Prism 3.0 (GraphPad Software Inc., San Diego, Calif.), setting top value at 100 and bottom value at 0.

Series [2] concerns K11 (HPV E7 transformed human keratinocyte line). Briefly: Secondary assay: cell proliferation WST-1, K11. The series is classed as cell-based. Conditions: read-out: Cell Proliferation Inhibition WST-1 (IC50 unless otherwise specified) K11. As for the experimental part: as §4, §1, §2, §3
Series [3] concerns NHEK-Ad (primary human adult keratinocyte line). Briefly: Secondary assay: cell proliferation WST-1, NHEK-Ad. In kind it is cell-based. Conditions: read-out: Cell Proliferation Inhibition WST-1 (IC50 unless otherwise specified) NHEK-AD. As for the experimental part: as §4, §1, §2, §3
Setting [4] is: Homo sapiens, Keratinocyte, 48 h.
Setting [5] is: Homo sapiens, Keratinocyte, K11 cells, 48 hours.

Like-named read-outs stand apart in the source and are kept apart here.

For `COc1ccc(C2(C(=O)Oc3ccc(C(=O)NO)cc3)CCCC2)cc1` [PX119063, 4-[(Hydroxyamino)carbonyl]phenyl 1-(4-methoxyphenyl) -cyclopentanecarboxylate], the melting point lay within 143 to 144 °C. Also, the IC50 with HDAC (HeLa cell extract) was 85 nM. Besides, the IC50 with HeLa cells (HeLa cells, 48 hours) is 4900 nM.
`CC(C)(C)C(=O)Oc1ccc(C2(C(=O)Oc3ccc(C(=O)NO)cc3)CCCCC2)cc1` [PX119086, 4-[(Hydroxyamino)carbonyl]phenyl 1-{4-[(2,2-dimethylpropanoyl)oxy]-phenyl}-cyclohexane-carboxylate] registered a melting point of 124 to 125 °C.
On the same count and under the same terms, the value for `O=C(NO)c1ccc(OC(=O)C2(c3cccc(F)c3)CCCCC2)cc1` [PX119061, 4-[(Hydroxyamino)carbonyl]phenyl 1-(3-fluorophenyl) -cyclohexanecarboxylate] was 150 to 151 °C.
Consider `CC(C)(C)OC(=O)c1ccc(C2(C(=O)Oc3ccc(C(=O)NO)cc3)CCCCC2)cc1` [PX118926, tert-Butyl 4-[1-({4-[(hydroxyamino)carbonyl]phenoxy}-carbonyl)cyclohexyl]benzoate], for which the melting point was 143 to 147 °C (dec.).
In turn, `O=C(NO)c1ccc(OC(=O)C2(c3ccc(F)cc3Cl)CCCCC2)cc1` [PX119064, 4-[(Hydroxyamino)carbonyl]phenyl 1-(2-chloro-4-fluorophenyl) -cyclohexanecarboxylate] yielded a melting point of 164 to 165 °C.
On the same count and under the same terms, the value for `Cc1ccc(C2(C(=O)Oc3ccc(C(=O)NO)cc3)CCCCC2)cc1` [PX118966, 4-[(Hydroxyamino)carbonyl]phenyl 1-(4-methylphenyl) -cyclohexanecarboxylate] was 59 to 60 °C.
The same measure, in the same setting: as for `O=C(NO)c1ccc(OC(=O)C2(c3ccccc3F)CCCCC2)cc1` [PX119062, 4-[(Hydroxyamino)carbonyl]phenyl 1-(2-fluorophenyl) -cyclohexanecarboxylate], the figure is 125 to 126 °C.
On to oxamflatin [reference compound], for which, in series [1], the IC50 was found to be 170 nM.
For `Nc1ccccc1NC(=O)c1ccc(CNC(=O)OCc2cccnc2)cc1` [MS-275, reference compound], the IC50 in series [2] (K11 cells, 48 hours) was 9160 nM; in series [3] (NHEK-AD cells, 48 hours) it was 3100 nM; in series [1], 365 nM.
With `CC(/C=C/C(=O)NO)=C\[C@@H](C)C(=O)c1ccc(N(C)C)cc1` [TSA, Trichostatin A, reference compound], the IC50 stood at 350 nM in the series on HeLa cells (HeLa, 48 h); 380 nM in series [2] (setting [4]); 200 nM in series [3] (setting [4]); 42 nM in series [1] (Homo sapiens).
In the case of `O=C(NO)c1ccc(OC(=O)C2(c3ccc(O)cc3)CCCCC2)cc1` [PX119103, 4-[(Hydroxyamino)carbonyl]phenyl 1-(4-hydroxyphenyl) -cyclohexanecarboxylate], the melting point was in the range of 93 to 94 °C.
Turning to `O=C(NO)c1ccc(OC(=O)C2(c3ccc(F)cc3)CCCCC2)cc1` [PX119065, 4-[(Hydroxyamino)carbonyl]phenyl 1-(4-fluorophenyl) -cyclohexanecarboxylate], the melting point lay within 150 to 151 °C.
`O=C(NO)c1ccc(OC(=O)C2(c3ccc(OC(=O)c4ccccc4)cc3)CCCCC2)cc1` [PX119085, 4-[1-({4-[(Hydroxyamino)carbonyl]phenoxy}carbonyl)cyclohexyl]-phenyl benzoate] gave a melting point of 114 to 115 °C.
`COc1ccc(C2(C(=O)Oc3ccc(C(=O)NO)cc3)CCCCC2)cc1` [PX118478, 4-[(Hydroxyamino)carbonyl]phenyl 1-(4-methoxyphenyl)-cyclohexanecarboxylate]: the melting point lay in the range of 127 to 129 °C. For the same molecule, the IC50 with HDAC (HeLa cell extract) turned out to be 23 nM. Moreover, the IC50 with HeLa cells (HeLa cells, 48 hours) came out at 4600 nM. In series [2] (setting [5]), the IC50 amounted to 13600 nM. For the same molecule, in series [1] (Homo sapiens), the IC50 worked out at 500 nM.
For `CC(=O)Oc1ccc(C2(C(=O)Oc3ccc(C(=O)NO)cc3)CCCCC2)cc1` [PX118959, 4-[(Hydroxyamino)carbonyl]phenyl 1-[4-(acetyloxy)phenyl]-cyclohexanecarboxylate], the melting point was found to be 69 °C.
Still for that read-out and setting: as for `O=C(O)c1ccc(C2(C(=O)Oc3ccc(C(=O)NO)cc3)CCCCC2)cc1` [PX119102, 4-[1-({4-[(Hydroxyamino)carbonyl]phenoxy}carbonyl)cyclohexyl]-benzoic acid], the figure is 169 to 170 °C.
Consider `O=C(NO)c1ccc(OC(=O)C2(c3c(F)cccc3Cl)CCCCC2)cc1` [PX119101, 4-[(Hydroxyamino)carbonyl]phenyl 1-(2-chloro-6-fluorophenyl) -cyclohexanecarboxylate], for which the melting point was in the range of 101 to 102 °C.
With `COC(=O)c1ccc(C2(C(=O)Oc3ccc(C(=O)NO)cc3)CCCCC2)cc1` [PX118480, Methyl 4-[1-({4-[(hydroxyamino)carbonyl]phenoxy}carbonyl) -cyclohexyl]benzoate], the melting point lay within 129 to 131 °C. In the series on HDAC (HeLa cell extract), the IC50 came to 25 nM. Moreover, the IC50 with HeLa cells (HeLa cells, 48 hours) came out at 7900 nM. In addition, the IC50 in series [2] (setting [5]) turned out to be 1650 nM. In addition, the IC50 in series [1] (Homo sapiens) was 780 nM.
Molecule `O=C(NO)c1ccc(OC(=O)C2(c3ccc(Cl)cc3)CCCCC2)cc1` [PX119059, 4-[(Hydroxyamino)carbonyl]phenyl 1-(4-chlorophenyl) -cyclohexanecarboxylate] gave a melting point of 145 to 146 °C.
Same read-out and setting: as for `CCOc1ccc(C2(C(=O)Oc3ccc(C(=O)NO)cc3)CCCCC2)cc1` [PX118925, 4-[(Hydroxyamino)carbonyl]phenyl 1-(4-ethoxyphenyl) -cyclohexanecarboxylate], the figure is 140 to 143 °C.
`O=C(NO)c1ccc(OC(=O)C2(c3ccccc3)CCCCC2)cc1` [PX118479, 4-[(Hydroxyamino)carbonyl]phenyl 1-phenylcyclohexanecarboxylate] registered a melting point of 142 to 144 °C. In addition, the IC50 with HDAC (HeLa cell extract) is 52 nM. For the same molecule, the IC50 in the series on HeLa cells (HeLa cells, 48 hours) came out at 13700 nM. Moreover, in series [2] (setting [5]), the IC50 was 21300 nM. Besides, the IC50 in series [1] (Homo sapiens) was 1250 nM.
